US12435379B2 (The University of Chicago, priority 2016, dated 2025)

Tests used:
[1] = tested on: TMD8 cells transfected with WT BTK; details: 100 nM ibr 3 days, 10 μM BrdU 2 hrs
Experimental: (§1) FIGS. 3A-C. […] (A) Growth of TMD8 cells transfected with BTK T316A, C481S, and WT BTK constructs. The transfected cells were cultured with either 100 nM ibr or DMSO. The live cell numbers were counted daily to 7 days. […] (B) Cell proliferation evaluated with the BrdU incorporation assay. Cells transfected with WT BTK and T316A were treated with 100 nM ibr for 3 days and were labeled with 10 μM BrdU for 2 hrs.
(§2) BTK WT or mutant-transfected TMD8 cells were treated with ibr for 72 hrs at indicated doses. Cells were then exposed to 10 μM BrdU for 2 hrs followed by cell cycle analysis according to the manufacturer's instructions using BrdU Flow Kit (BD Pharmingen, San Diego, CA, USA). Flow cytometric analysis was performed using 4-laser BD LSR II using FACSDiva and FlowJo software.
(§3) The functional impact of T316A mutation was assessed at the cellular levels. BTK wild type (WT) and T316A as well as C481S expression vectors were constructed and transfected into an ibr-sensitive lymphoma cell line (TMD8) and cell growth was followed.

[2] = tested on: TMD8 cells transfected with BTK T316A; details: 100 nM ibr 3 days, 10 μM BrdU 2 hrs
Experimental: as §1, §2, §3

Structure (SMILES): C=CC(=O)N1CCC[C@@H](n2nc(-c3ccc(Oc4ccccc4)cc3)c3c(N)ncnc32)C1 [Ibrutinib, ibrutinib]
- BrdU incorporation (cellular proliferation) under ibr [1]: 9.71%
- BrdU incorporation (cellular proliferation) under ibr [2]: 31.8%
